We go through one compound from US20210038559A1, “CANNABINOIDS AND DERIVATIVES FOR PROMOTING IMMUNOGENICITY OF TUMOR AND INFECTED CELLS” (priority 2018, published 2021).

For data set [1], the system named is MHC class I expression, mouse Lewis lung carcinoma cell line A9. Kind of data set: MHC class I expression in mouse A9 Lewis lung carcinoma cells, 24 hours, flow cytometry. Type of data set: cell-based. To be noted: 21 μM, relative to the DMSO control. On the procedure:
FIG. 1A-1B. Cannabigerol stimulates MHC class I expression in the mouse A9 Lewis lung carcinoma (FIG. 1A) and the human COLO 205 colorectal carcinoma (FIG. 1B) cell lines. Cells were treated for 24 hours with 21.2 μM (A) or 25 and 50 μM (FIG. 1B) cannabigerol.
Cannabigerol, a representative cannabinoid, was tested for its ability to also stimulate MHC class I expression in mammalian cancer cell lines. The mouse Lewis lung carcinoma cell line, A9, was treated with 21 μM of cannabigerol for 24 hours prior to flow cytometric analysis of cell surface expression of MHC class I expression levels using the MHC class I antibody W6/32 (Thermo Fisher). Control conditions included the vehicle, dimethyl sulfoxide (DMSO, 1%) alone, and 100 ng/ml of trichostatin A (TSA), a histone deacetylase inhibitor and known inducer of MHC class I expression in mammalian cells. […] The positive control, TSA, stimulated expression by 2.4-fold.

The test system of data set [2] is CD8+ T cells from OT1 mice co-cultured with A9 cells. Kind of data set: OT1 CD8+ T cell proliferation (CFSE) in co-culture with […]-loaded A9 cells. The format is cell-based, mouse. On the procedure:
FIG. 8. A proliferation experiment using CD8^+ T cells from […]-primed OT1 mice in response to […] peptide presented on MHC class I of A9 cells. A9 cells were treated with 0.055 μM of Cannabigerol, 5.832×10^−6 nM of IFN gamma positive control. The negative control is named “CFSE and […] CD8^+ T cells”. T cells were labeled with CFSE proliferation dye, which is reduced within the progeny cells as the generations progress.
FIG. 9 MHC Class I expression of A9 cells associated with CD8^+ T cells from […]-primed OT. A9 cells were treated with 0.055 μM of Cannabigerol, or 5.832×10^4 nM of IFN gamma.
A cytolytic assay was performed as follows. A9 cells (1×10^6) were plated onto a 6 well plate in two mL of RPMI media (Advanced RPMI-1640 Medium (Gibco), 100 U/mL of Penicillin-Streptomycin (P+S) (Thermofisher), 1% L-Glutamine (Gibco), and 10% FBS). A9 cells were treated with either Cannabigerol 0.055 μM, 5.832×10^4 nM IFN gamma, or 1% DMSO vehicle. After 24 hours, […] OVA Peptide ([…]) (Genscript), was added to the A9 cells. Following an additional 24 hours, CD8^+ T cells were collected from OT1 mouse spleens. […] An extra well of untreated A9 cells was counted and used as a standard count. CD8^+ T cells were counted and then treated with CFSE (Biolegend) per manufacture protocol, before being co-cultured with A9 cells to a 1:1 ratio or a 1:5 ratio. […]

In data set [3] the test system is A9 cells, soluble mouse proteins. In words: Cytokine secretion profile in Cannabigerol treated A9 cells (Proteome Profiler Mouse XL cytokine array). The settings on record: 0.055 μM, 48 hours, versus DMSO. Type of data set: cell-based. On the procedure: FIG. 10A-10E show the cytokines and other markers that have increased or decreased expression after treatment with cannabinoids, as compared to interferon gamma. FIG. 10A) Inflammatory markers; FIG. 10B) Cell growth markers; FIG. 10C) Leukocyte migration markers; FIG. 10D) Cell growth and differentiation markers; FIG. 10E) summary of markers.
Cannabigerol and IFN gamma were dissolved in 1% Dimethyl Sulfoxide (DMSO) (Sigma) in media (1% DMSO). 1×10^6 A9 cells were plated onto a 6 well plate in two mL of DMEM media. Twenty-four hours after seeding, cells were cultured at the optimum concentrations of Cannabigerol 0.055 μM or 5.832×10^−6 nM IFN gamma or 1% DMSO vehicle for 48 hours. Relative expression levels of 111 soluble mouse proteins including cytokines, chemokines and growth factors were evaluated using the Proteome Profiler Mouse XL cytokine array kit (R&D System, ARY028) following the manufacturer's instructions. Spot densities on the array film were detected and quantified using Image J analysis software Image J protein analyzer add-on on a scanned version of the film. Quantification of the spot intensity in the arrays was conducted with background subtraction in ImageJ. To determine fold change, the treatment values of IFN gamma microarrays were divided by the DMSO negative control values of the concurring spots. A value of 1 was subtracted from the absolute value of this fold change, to correct the value of DMSO to “0”. Experiment was done in technical replicates.
There also was an increase in VEGFA. Additionally, there was downregulation of IL-10, and IL-11. There also was a decrease in the production of IGFBP1 and angiopoietin-1,

For the next data set, the system named is MHC class I, A9 cells. Type of data set: cell-based, mouse. To be noted: 48 hours. On the procedure: FIG. 6. Cannabigerol treatment of A9 cells for 48 hours at various doses increases MHC class I protein expression, as determined by flow cytometry. […] IFN γ treatment was at 5.832×10^−6 in two mL of media.
The effect of cannabigerol on MHC class I in A9 cancer cells were determined as follows. A9 cells (1×10^6) were plated onto a 6 well plate (Corning) in two mL of media. A9 cells were treated after 24 hours at various concentrations of Cannabigerol, 5.832×10^4 nM IFN gamma or DMSO vehicle for 48 hours. Cells were then harvested from the plate as per protocol and half of the cells were checked for MHC class I expression levels using flow cytometry. The Anti-mouse H2 KB APC antibody (Biolegend) was used at 1:200 in FACS buffer (2% FBS in PBS).

Consider `CCCCCc1cc(O)c(C/C=C(\C)CCC=C(C)C)c(O)c1` [Example 1, 2-[(2E)-3,7-dimethyl-2,6-octadien-1-yl]-5-pentyl-1,3-benzenediol], for which, in data set [1], the cell death result is listed as “limited cell death” and the “increase in MHC class I expression” value is 1.8 fold. Besides, the “MHC class I on the A9 cells associated with the OT1 T cells” value in data set [2] (A9 cells treated with 0.055 μM) is “increase”. Moreover, the “proliferation of OT1 CD8+ T cells” value in data set [2] (A9 cells treated with 0.055 μM for 48 hours prior to co-culture) is on record as “increased proliferation”. Further, in data set [3], the FGF-21 expression result was “upregulated”, the IL-10 expression result was “downregulation”, the IL-11 expression entry was “downregulation” and the IL-13 expression result is reported as “upregulated”. In data set [3], the VEGFA expression result was “increase”, the “production of IGFBP1” value is given as “decrease” and the “production of angiopoietin-1” value is “decrease”. The “upregulation of class I MHC” value in the data set with MHC class I, A9 cells (0.0275 μM) is recorded as “less upregulation”. Moreover, in the data set on MHC class I, A9 cells (0.055 μM, relative to vehicle (DMSO), p value <0.0001, one-way ANOVA), the “class I MHC expression” value is on record as “significant increase”.
